As usually defined, the IC50 is the concentration that gives 50% inhibition. The term half-life denotes how long it takes for the measured level to halve. By inhibition is commonly meant the relative decrease from the control value, in per cent.

The values that follow come from ChEMBL document CHEMBL5030549, “Design, synthesis and biological evaluation of new thiazole scaffolds as potential TRPM8 antagonists” (Bioorg Med Chem Lett, 2021).

SMILES strings stand for the structures. Calls of active or inactive are those of the source. No cut-off for these calls is given here.

The target in data set [1] is Transient receptor potential cation channel subfamily V member 1 (Homo sapiens) (UniProt Q8NER1). As to the kind of experiment: Antagonist activity at human TRPV1 inhibition of capsaicin-induced channel activation at <= 30 uM. As to conditions: dose microM <=30.
For data set [2], the target named is T1, Transient receptor potential cation channel subfamily M member 8 (Homo sapiens, UniProt Q7Z2W7). As to the kind of experiment: Antagonist activity at recombinant human TRPM8 transfected in HEK293 cells assessed as assessed as inhibition of icilin-induced intracellular calcium flux. Format: cell-based. (In general: Calcium assays in cells follow changes in intracellular calcium, usually with a dye or a luminescent sensor.)
Target sequence in this assay (Q7Z2W7 whole entry): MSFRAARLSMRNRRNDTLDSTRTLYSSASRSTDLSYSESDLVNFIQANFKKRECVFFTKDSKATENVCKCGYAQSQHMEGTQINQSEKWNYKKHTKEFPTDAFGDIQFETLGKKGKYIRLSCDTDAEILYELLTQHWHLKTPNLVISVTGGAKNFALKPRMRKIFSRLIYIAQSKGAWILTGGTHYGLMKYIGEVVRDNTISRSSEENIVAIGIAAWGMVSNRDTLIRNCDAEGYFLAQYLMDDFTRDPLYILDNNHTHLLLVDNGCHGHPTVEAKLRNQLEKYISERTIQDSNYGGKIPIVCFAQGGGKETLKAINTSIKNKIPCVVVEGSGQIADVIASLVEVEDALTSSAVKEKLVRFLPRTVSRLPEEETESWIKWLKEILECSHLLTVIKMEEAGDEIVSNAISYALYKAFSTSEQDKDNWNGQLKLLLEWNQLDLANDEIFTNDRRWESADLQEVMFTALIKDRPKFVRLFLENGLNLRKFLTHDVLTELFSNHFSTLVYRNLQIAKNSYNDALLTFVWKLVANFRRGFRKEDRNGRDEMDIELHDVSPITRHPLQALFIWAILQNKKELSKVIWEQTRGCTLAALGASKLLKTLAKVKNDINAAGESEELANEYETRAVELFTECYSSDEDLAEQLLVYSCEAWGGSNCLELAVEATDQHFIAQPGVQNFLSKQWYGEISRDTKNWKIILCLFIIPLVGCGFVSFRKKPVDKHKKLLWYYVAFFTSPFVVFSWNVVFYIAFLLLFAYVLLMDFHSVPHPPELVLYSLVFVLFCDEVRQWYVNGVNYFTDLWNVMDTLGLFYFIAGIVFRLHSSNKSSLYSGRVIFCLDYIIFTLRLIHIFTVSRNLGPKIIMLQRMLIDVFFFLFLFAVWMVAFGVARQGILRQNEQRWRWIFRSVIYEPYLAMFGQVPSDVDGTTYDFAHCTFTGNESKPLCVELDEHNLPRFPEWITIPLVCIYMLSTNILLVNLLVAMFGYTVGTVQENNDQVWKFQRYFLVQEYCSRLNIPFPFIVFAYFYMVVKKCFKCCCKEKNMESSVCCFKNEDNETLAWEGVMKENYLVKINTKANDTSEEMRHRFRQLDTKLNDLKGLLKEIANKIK

Data set [3] is described as follows: Metabolic stability in human liver microsomes assessed as half life in presence of NADPH. Format: ADME, Microsome. A general note: Liver microsomes are vesicles of endoplasmic reticulum, rich in cytochrome P450 enzymes.
Data set [4] is described as follows: Metabolic stability in human liver microsomes assessed as intrinsic clearance in presence of NADPH. It counts as ADME, Microsome.
The next data set concerns HepG2. Kind of data set: Cytotoxicity against human HepG2 cells assessed as reduction in cell viability at 100 uM. It counts as cell-based. The note with it: hepg2, 100 µM.
The target in data set [5] is T1, Transient receptor potential cation channel subfamily M member 8. Kind of data set: Antagonist activity at recombinant human TRPM8 transfected in HEK293 cells assessed as assessed as inhibition of icilin-induced intracellular calcium flux at 0.5 uM relative to control. Format: cell-based. As to conditions: filed as antagonist.
Target sequence in this assay (Q7Z2W7 whole entry, looked up): as the sequence (Q7Z2W7 whole entry) above

Chain of Transient receptor potential cation channel subfamily V member 1 (Homo sapiens) (Q8NER1 whole entry): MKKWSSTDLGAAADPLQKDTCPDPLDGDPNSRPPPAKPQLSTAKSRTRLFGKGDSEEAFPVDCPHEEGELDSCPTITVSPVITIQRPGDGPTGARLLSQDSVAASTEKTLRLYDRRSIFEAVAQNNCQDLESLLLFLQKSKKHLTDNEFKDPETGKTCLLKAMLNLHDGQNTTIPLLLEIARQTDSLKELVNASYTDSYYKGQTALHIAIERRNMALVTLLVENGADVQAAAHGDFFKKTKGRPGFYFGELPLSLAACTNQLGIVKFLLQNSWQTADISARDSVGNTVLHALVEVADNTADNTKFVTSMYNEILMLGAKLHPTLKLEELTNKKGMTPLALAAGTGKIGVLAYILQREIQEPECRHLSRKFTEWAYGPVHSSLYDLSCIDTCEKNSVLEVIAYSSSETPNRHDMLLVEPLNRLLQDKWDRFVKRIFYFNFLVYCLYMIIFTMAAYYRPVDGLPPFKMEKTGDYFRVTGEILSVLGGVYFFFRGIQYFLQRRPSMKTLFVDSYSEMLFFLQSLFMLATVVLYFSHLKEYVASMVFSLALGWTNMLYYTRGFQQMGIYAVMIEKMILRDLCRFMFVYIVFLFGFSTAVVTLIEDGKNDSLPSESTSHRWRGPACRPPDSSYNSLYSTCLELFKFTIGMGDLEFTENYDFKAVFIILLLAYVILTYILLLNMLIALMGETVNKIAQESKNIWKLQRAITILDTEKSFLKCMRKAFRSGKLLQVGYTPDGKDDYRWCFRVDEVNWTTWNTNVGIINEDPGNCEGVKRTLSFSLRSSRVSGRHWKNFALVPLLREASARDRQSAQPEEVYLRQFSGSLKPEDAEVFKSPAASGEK

With `CCOC(=O)/C=C/Oc1nc(-c2ccc(C)cc2)sc1C(=O)OCC`, the outcome in data set [1] was inactive. Also, in data set [2], the IC50 was determined as 1130 nM. In addition, in data set [3], the half-life is < 10 min.

In the case of `O=C(O)CCCc1cc2nc(-c3cccc(F)c3)sc2c(=O)[nH]1`, in data set [1], the outcome was inactive.

For the molecule `CCOC(=O)c1sc(-c2cccc(F)c2)nc1C#CCCCC(=O)O`, in data set [1], the result was inactive. Further, the IC50 in data set [2] turned out to be 4060 nM. Further, in data set [4], the CLH stood at 0.13 mL/min/g. In addition, the Activity result in the data set on HepG2 is on record as “Non-Toxic”.

In the case of `CCOC(=O)CCCC#Cc1nc(-c2cccc(F)c2)sc1C(=O)OCC`, the result in data set [1] was inactive.

With `O=C(O)CCCc1cc2nc(-c3cccc(F)c3)sc2c(=O)o1`, in data set [1], the result was inactive.

Regarding `COc1cc(CN(CCN)C(=O)c2cccs2)ccc1OCc1ccccc1`, the inhibition in data set [5] was 98.3%.

As to `CCOC(=O)CCCc1[nH]nnc1-c1nc(-c2cccc(F)c2)sc1C(=O)OCC`, in data set [1], the outcome was inactive.
